Like-named read-outs stand apart in the source and are kept apart here.
Tests used:
Colon cancer cell lines = conditions: percent of cell lines, 34 cell lines
Procedure: (§1) The growth of all cell lines was evaluated over time across a wide range of seeding densities to identify conditions that permitted proliferation throughout the entire 6-day assay. Cells were plated at the optimal seeding density and after overnight incubation, a 20-point 2-fold titration of compound was added and plates were incubated for 6 days. A replicate plate of cells was harvested at the time of compound addition to quantify the starting number of cells (T0). Values obtained after the 6 day treatment were expressed as a function of the T0 value and plotted against compound concentration. The T0 value was normalized to 100% and represents the number of cells at the time of compound addition. The data were fit with a 4 parameter equation to generate a concentration response curve and the growth IC50 (gIC50) was determined. The gIC50 is the midpoint of the ‘growth window’, the difference between the number of cells at the time of compound addition (To) and the number of cells after 6 days (DMSO control). The growth-death assay can be used to quantify the net population change, clearly defining cell death (cytotoxicity) as fewer cells compared to the number at the time of compound addition (T0).

A375 = conditions: A375, melanoma, 6-day
Procedure: as §1

NOMO-1 = conditions: NOMO-1, AML subtype M5, 6-day
Procedure: as §1

[1] = system: Bladder cancer cell lines; conditions: 18 cell lines
Procedure: as §1

769-P = conditions: ccRCC, 6-day
Procedure: as §1

G-402 = conditions: G-402, Leiomyoblastoma, 6-day
Procedure: as §1

CAKI-1 = conditions: CAKI-1, ccRCC, 6-day
Procedure: as §1

OCI- = conditions: AML subtype M4, 6-day
Procedure: as §1

IGR-1 = conditions: IGR-1, melanoma, 6-day
Procedure: as §1

Lymphoma cell lines = conditions: 59 cell lines
Procedure: as §1

MOLM-13 = conditions: MOLM-13, AML subtype M5, 6-day
Procedure: as §1

CAKI-2 = conditions: CAKI-2, ccRCC, 6-day
Procedure: as §1

Breast cancer cell lines = conditions: percent of cell lines, 29 cell lines
Procedure: as §1

[2] = system: Prostate cancer cell lines; conditions: 4 cell lines
Procedure: as §1

ACHN = conditions: ccRCC, 6-day
Procedure: as §1

SK-NEP-1 = conditions: SK-NEP-1, Wilm's, 6-day
Procedure: as §1

COLO741 = conditions: COLO741, melanoma, 6-day
Procedure: as §1

A498 = conditions: A498, ccRCC, 6-day
Procedure: as §1

ccRCC cell lines = conditions: only at highest concentration
PRMT4 = PRMT4 (Homo sapiens, UniProt Q86X55); test: PRMT family radioactive assay; format: biochemical
[3] = system: Toledo (human DLBCL) xenograft; conditions: for Body weight Difference (vs. vehicle): Toledo (DLBCL), Day 25
PRMT8 = PRMT8 (Homo sapiens, UniProt Q9NR22); test: PRMT family radioactive assay; format: biochemical
PRMT6 = PRMT6 (Homo sapiens, UniProt Q96LA8); test: PRMT family radioactive assay; format: biochemical
[4] = system: arginine methylation (ADMA, MMA, SDMA) in Toledo cells; test: Durability of arginine methylation changes after compound washout (western); format: cell-based, human; conditions: 0.4 μM for 72 hours, then washout
Procedure: (A) Stability of changes to ADMA. […] (B) Representative western blots of arginine methylation marks. Regions quantified for (A) are denoted by black bars on the side of the gel.
Cells were then washed, cultured in Compound A-free media, samples were collected daily through 120 hours, and arginine methylation levels were examined by western analysis. […] SDMA appeared to continue to increase even after 6 hours of washout. This is consistent with the continued increase observed through 120 hours without any obvious plateau (FIG. 12) coupled with the durable increase in MMA that has not yet returned to baseline after washout. Durability of each modification generally reflected the kinetics of arginine methylation changes brought about by Compound A, with MMA being the most rapid.

PRMT3 = PRMT3 (Homo sapiens, UniProt O60678); test: PRMT family radioactive assay; format: biochemical
[5] = system: Toledo (human DLBCL) xenograft; conditions: for Body weight Difference (vs. vehicle) / Regression: Toledo (DLBCL), Day 28
[6] = 60 minute SAM:Enzyme:Compound A preincubation

PRMT4, sequence (Q86X55 whole entry): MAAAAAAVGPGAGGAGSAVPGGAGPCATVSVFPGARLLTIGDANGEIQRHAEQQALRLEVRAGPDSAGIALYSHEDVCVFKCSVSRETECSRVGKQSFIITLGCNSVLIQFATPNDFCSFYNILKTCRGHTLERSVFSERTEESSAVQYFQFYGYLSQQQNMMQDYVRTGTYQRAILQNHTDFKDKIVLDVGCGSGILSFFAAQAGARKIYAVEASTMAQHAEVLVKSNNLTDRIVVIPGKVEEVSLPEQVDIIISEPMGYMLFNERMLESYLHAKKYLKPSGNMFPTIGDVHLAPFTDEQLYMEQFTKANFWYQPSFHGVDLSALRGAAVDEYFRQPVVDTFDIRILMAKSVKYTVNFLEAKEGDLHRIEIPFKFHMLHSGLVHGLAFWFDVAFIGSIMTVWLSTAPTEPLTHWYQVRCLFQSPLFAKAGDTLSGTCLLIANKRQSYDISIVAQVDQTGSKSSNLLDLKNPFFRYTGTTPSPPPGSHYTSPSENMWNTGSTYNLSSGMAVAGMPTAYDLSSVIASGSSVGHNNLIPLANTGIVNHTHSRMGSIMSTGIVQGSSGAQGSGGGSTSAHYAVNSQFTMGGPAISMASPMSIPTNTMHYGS
PRMT3, sequence (O60678 whole entry): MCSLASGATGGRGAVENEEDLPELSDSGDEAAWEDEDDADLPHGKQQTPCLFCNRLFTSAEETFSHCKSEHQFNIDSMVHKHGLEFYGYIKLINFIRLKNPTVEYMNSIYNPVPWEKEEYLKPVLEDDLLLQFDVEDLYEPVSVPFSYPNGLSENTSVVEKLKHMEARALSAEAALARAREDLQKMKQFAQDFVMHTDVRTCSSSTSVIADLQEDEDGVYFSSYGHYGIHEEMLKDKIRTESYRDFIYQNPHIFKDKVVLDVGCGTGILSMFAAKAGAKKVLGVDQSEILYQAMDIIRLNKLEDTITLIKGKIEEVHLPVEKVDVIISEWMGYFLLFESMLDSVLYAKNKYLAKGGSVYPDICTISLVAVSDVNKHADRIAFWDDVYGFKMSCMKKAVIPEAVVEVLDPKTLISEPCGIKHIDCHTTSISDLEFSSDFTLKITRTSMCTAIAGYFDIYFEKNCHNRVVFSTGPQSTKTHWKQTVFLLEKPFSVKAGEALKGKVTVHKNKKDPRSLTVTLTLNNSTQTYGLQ
PRMT6, sequence (Q96LA8 whole entry): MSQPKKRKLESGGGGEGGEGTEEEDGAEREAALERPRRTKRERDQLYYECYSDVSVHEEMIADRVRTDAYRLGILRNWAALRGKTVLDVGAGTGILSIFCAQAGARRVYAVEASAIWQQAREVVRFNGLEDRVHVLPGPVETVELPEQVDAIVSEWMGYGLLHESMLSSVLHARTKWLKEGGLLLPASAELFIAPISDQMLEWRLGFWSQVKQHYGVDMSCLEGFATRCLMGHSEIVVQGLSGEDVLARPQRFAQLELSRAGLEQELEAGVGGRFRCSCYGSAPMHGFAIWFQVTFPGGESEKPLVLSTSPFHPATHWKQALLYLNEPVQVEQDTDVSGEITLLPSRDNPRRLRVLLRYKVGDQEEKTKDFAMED
PRMT8, sequence (Q9NR22 whole entry): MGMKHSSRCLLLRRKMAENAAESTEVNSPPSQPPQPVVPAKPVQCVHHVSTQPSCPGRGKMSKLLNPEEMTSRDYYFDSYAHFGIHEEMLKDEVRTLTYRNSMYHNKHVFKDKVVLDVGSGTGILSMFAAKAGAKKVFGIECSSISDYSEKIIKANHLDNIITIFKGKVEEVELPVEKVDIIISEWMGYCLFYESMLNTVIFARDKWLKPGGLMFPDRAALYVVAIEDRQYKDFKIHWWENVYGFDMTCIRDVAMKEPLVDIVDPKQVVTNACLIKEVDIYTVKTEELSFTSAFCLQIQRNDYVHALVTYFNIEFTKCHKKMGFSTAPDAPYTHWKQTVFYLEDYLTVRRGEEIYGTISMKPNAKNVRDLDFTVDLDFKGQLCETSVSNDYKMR

`CCOCC1(COCC)CCC(c2n[nH]cc2CN(C)CCNC)CC1` [Compound A] was tested, and the “% Cytotoxic” value (Colon cancer cell lines) was 3%, the “% gIC100 < 2” value (Colon cancer cell lines) was 0% and the “Ymin − T0” value (A375) was 91.9. The gIC100 (A375) was 29.33 ± 0.00 µM, the gIC100 (NOMO-1) was 29.33 ± 0.00 µM and the “Ymin − T0” value (NOMO-1; negative = cell death) was 259.1. The “Median gIC100” value ([1]; 6-day proliferation) was 29.33 µM, the “% Cytotoxic” value ([1]; percent of cell lines) was 0% and the “% gIC100 < 2” value ([1]; percent of cell lines) was 0%. For the same compound, the “Ymin − T0” value (769-P) was 119.0, the “Ymin − T0” value (G-402) was 92.6 and the “Ymin − T0” value (CAKI-1) was 178.7. For the same compound, the gIC100 (OCI-) was 29.33 ± 0.00 µM, the “Ymin − T0” value (OCI-; negative = cell death) was 523.2 and the “Ymin − T0” value (IGR-1) was 507.0. For the same compound, the gIC100 (IGR-1) was 29.33 ± 0.00 µM, the “Median gIC100” value (Lymphoma cell lines; 6-day proliferation) was 21.62 µM and the “% Cytotoxic” value (Lymphoma cell lines; percent of cell lines) was 54%. For the same compound, the “% gIC100 < 2” value (Lymphoma cell lines; percent of cell lines) was 14%, the gIC100 (MOLM-13) was 8.64 ± 0.39 µM and the “Ymin − T0” value (MOLM-13; negative = cell death) was −100.0. For the same compound, the “Ymin − T0” value (CAKI-2) was 169.6, the “% Cytotoxic” value (Breast cancer cell lines) was 10% and the “% gIC100 < 2” value (Breast cancer cell lines) was 0%. For the same compound, the “Median gIC100” value ([2]; 6-day proliferation) was 29.34 µM, the “% Cytotoxic” value ([2]; percent of cell lines) was 0% and the “% gIC100 < 2” value ([2]; percent of cell lines) was 0%. The “Ymin − T0” value (ACHN) was 96.5, the “Ymin − T0” value (SK-NEP-1) was 25.3 and the “Ymin − T0” value (COLO741) was 12.5. For the same compound, the gIC100 (COLO741) was 28.55 ± 1.40 µM, the “Ymin − T0” value (A498) was 313.4 and the “concentration at which caspase cleavage occurred” value (ccRCC cell lines) was 30 µM. The inhibition of activity (PRMT4; [6]) was “inhibited the activity”, the “time dependence of inhibition” value (PRMT4; increasing preincubation times) was “time dependent inhibitor” and the “Body weight Difference (vs. vehicle)” value ([3]; 37.5 QD mg/kg oral) was −5%. For the same compound, the “Body weight Difference (vs. vehicle)” value ([3]; 75 BID mg/kg oral) was −4%, the “Body weight Difference (vs. vehicle)” value ([3]; 75 QD mg/kg oral) was −5% and the “Body weight Difference (vs. vehicle)” value ([3]; 150 QD mg/kg oral) was −7%. For the same compound, the body weight loss ([3]; any dose group, 37.5-150 mg/kg QD or 75 mg/kg BID) was “No significant body weight loss”, the inhibition of activity (PRMT8; [6]) was “inhibited the activity” and the “time dependence of inhibition” value (PRMT8; increasing preincubation times) was “time dependent inhibitor”. The inhibition of activity (PRMT6; [6]) was “inhibited the activity”, the “time dependence of inhibition” value (PRMT6; increasing preincubation times) was “time dependent inhibitor” and the “time for ADMA to return to baseline after washout” value [4] was at most 24 h. The “time for MMA to return to baseline after washout” value [4] was at most 24 h, the “time for SDMA to return to baseline after washout” value [4] was at most 96 h and the inhibition of activity (PRMT3; [6]) was “inhibited the activity”. The “time dependence of inhibition” value (PRMT3; increasing preincubation times) was “no time dependent behavior”, the “Body weight Difference (vs. vehicle)” value ([5]; 150 QD mg/kg oral) was −4% and the “Body weight Difference (vs. vehicle)” value ([5]; 300 QD mg/kg oral) was −3%. The Regression ([5]; 300 QD mg/kg oral) was 37%, the “Body weight Difference (vs. vehicle)” value ([5]; 450 QD mg/kg oral) was −8% and the Regression ([5]; 450 QD mg/kg oral) was 58%. The “Body weight Difference (vs. vehicle)” value ([5]; 600 QD mg/kg oral) was −7%, the Regression ([5]; 600 QD mg/kg oral) was 62% and the “doses at which regressions were observed” value ([5]; Toledo xenograft, oral daily, 28 days) was at least 300 mg/kg. For the same compound, the body weight loss ([5]; any dose group, 150-600 mg/kg daily) was “no significant body weight loss”.
